Read-outs that look alike come from different tables or passages of the source.
What was measured:
[1] = bovine species, same (transdermal) formulation; cited from earlier work
[2] = Pharmacokinetic study of flunixin in young piglets, comparing administration routes (plasma LC-MS/MS); format: in vivo, piglets (swine); conditions: pig, read-out: % F (bioavailability)
Procedure: A pharmacokinetic study was conducted to compare the bioavailability of flunixin when administered buccally, intramuscularly, IV, and the transdermal routes via the perineum, ear canal, rectum, and midline in young piglets.
Piglets were administered either Banamine® Transdermal (buccal, perineum, ear canal, rectum, and midline) or Banamine®-S Injectable Solution (intravenous and intramuscular) at 5 to 6 days of age. Blood samples were collected from the piglets at 5 min, 15 min, 1 h, 2 h, 4 h, 8 h, 12 h, 24 h, 36 h, and 48 h for those treated with Banamine® Transdermal, and at 1 h, 2 h, 4 h, 8 h, 12 h, 24 h, 36 h, 48 h, 60 h, and 72 h for those treated with Banamine®-S Injectable Solution. Plasma samples were analyzed for flunixin concentration using an GLP-validated LC/MS-MS method. Swine plasma (K2EDTA) is extracted by protein precipitation with an acetonitrile solution of the internal standard (Flunixin-d3). The samples are then centrifuged, and the resulting supernatants are analyzed by LC-MS/MS using selective reaction monitoring in negative electrospray ionization mode. The ionic transitions monitored are m/z 295 to m/z 251 for Flunixin and m/z 298 to m/z 254 for the internal standard.
The following key pharmacokinetic parameters were calculated for each group (mean±standard error): […]

bioavailability ([2]; im, Intramuscular, Banamine-S Injectable Solution, piglets): 71%
bioavailability ([2]; other: buccal, Buccal, Banamine Transdermal, piglets): 40%
bioavailability ([2]; topical or ocular, Midline, Banamine Transdermal, piglets (swine)): 5%
SMILES: Cc1c(Nc2ncccc2C(=O)O)cccc1C(F)(F)F [flunixin, Flunixin]
bioavailability [1]: 44%

Source: patent US20230390260A1, “METHOD OF TREATMENT OF PAIN THROUGH BUCCAL ADMINISTRATION OF FLUNIXIN” (Intervet Inc., priority 2020, published 2023)
